# Experimental data reported in patent publication USRE44543E1, “Naphthalenic compounds as termite bait toxicants” (priority 2002, dated 2013).
# Key:
# C. formosanus [1] = details: low toxicity baits; cited from earlier work
# Reticulitermes spp. = details: low toxicity baits; cited from earlier work
# C. formosanus [2] = assay: ARS bait matrix bioassay with NHA sodium salt, protocol of Example 1 (Example 2); assay type: in vivo, Coptotermes formosanus
# Method: (§1) For bait matrices with a final concentrations of NHA sodium salt of either 250 ppm or 500 ppm, the following procedure was used. A total of 25 mg or 50 mg, respectively of the NHA sodium salt was weighed using a Mettler balance. The NHA sodium salt complex was placed into a 50 ml sterile screw cap conical tube (#62.547.004; Sarstedt, Newton, N.C.) and dissolved with 40 ml nutritive solution described in Example 2 of U.S. patent application Ser. No. 09/294,499 filed Apr. 20, 1999, hereby incorporated by reference. Under a laminar flow hood, this product was mixed with 27 ml more of sterile nutritional supplement in a 250 ml sterile glass bottle (prepared as reported by M. G. Rojas and J. A. Morales-Ramos, April 2001, “Bait matrix for delivery of chitin synthesis inhibitors to the Formosan subterranean termite [Isoptera: Rhinotermitidae],” J. Econ. Entomol. 94(2) :506-510) hereby incorporated by reference. The bottle was tightly closed with a screw cap and manually shaken for 2 minutes. The mixture was added to 33 g of sterile cellulose as reported by Rojas and Morales-Ramos (2001) supra. The mixture was manually homogenized using a stainless steel spatula. To encase the bait matrix, tubes made of fibrous casing material (#124B; L.E.M. Products, Inc., Miamitown, Ohio) were cut into 150 mm long portions as reported by Rojas and Morales-Ramos (2001) supra. Fifty grams of bait matrix containing NHA sodium salt was compacted into one end of the inlet tube, and the open end and of the inlet tube was closed with a rubber band. The bait casing was placed inside of the foraging box adjacent to a 10 g piece of pine wood, taking care that it was partially covered with sand. Control bait matrix was prepared minus NHA, and presented in the same way as the treatment matrix to Formosan termites taken from three different colonies, with two boxes per locality totaling six boxes of 2500 termites per treatment. (Rojas and Morales-Ramos [2001] supra). All the experimental boxes were maintained under dark conditions at 27±1° C., and 90±2% relative humidity. Observations were done every 72 hours until all the termites died. The time to reach 100% mortality was measured and recorded. Mean comparisons among treatments and control were conducted.
# N-hydroxynaphthyalimide (NHA) which is commercially available as pure chemical, is dissolved in distilled water using a sterile container; At concentrations of 500 ppm, NHA is effective as bait active ingredient taking a mean time to kill C. formosanus in 2½ months in lab conditions. […]
# Formosan termites = assay: Foraging box bait matrix bioassay, NHA sodium salt (Example 1); assay type: in vivo, Coptotermes formosanus; details: 6 boxes of 2500 termite workers
# Method: as §1
# termites [3] = details: Grace et al. 1993; cited from earlier work
# termites [4] = assay: Copper naphthenate laboratory study, ARS bait matrix in foraging boxes; assay type: in vivo, Coptotermes formosanus
# Method: as §1
# Copper naphthenate (Product No. PS-2028, Chem Service, West Chester, Pa.) was dissolved in 90% warm ethanol at 3 different concentrations of 50, 100 and 200 ppm. The ethanol solution was mixed with the liquid part of the ARS bait matrix (see Example 2) and bait was prepared and presented to the termites as above in Example 1 having 4 repetitions per dose and a control. It was observed that at 50 ppm of chemical, all termites in 50% of the boxes died at about 8 weeks; and termites in 75% of the boxes died at about 10 weeks; at 100 ppm all termites died in the boxes at 8 weeks, and at 200 ppm all termites died in all tested boxes at 8 weeks. All termites in the treatments were dead by week 12.
compound,measurement,setting,value
O=C(NC(=O)c1c(F)cccc1F)Nc1cc(Cl)c(OC(F)(F)C(F)F)c(Cl)c1 [hexaflumuron],suppressing colonies,C. formosanus [1],particularly effective
same,suppressing colonies,Reticulitermes spp.,particularly effective
"O=C1c2cccc3cccc(c23)C(=O)N1[O-].[Na+] [NHA-sodium salt, N-hydroxynaphthyalimide Sodium Salt]",repellence to the termites,C. formosanus [2]; 500 ppm,without any signs of repellence
same,time to formosan termite mortality,"C. formosanus [2]; 500 ppm, preliminary results, dose range 50, 250, 500 ppm",within about two months
same,dose at which repellence was observed,C. formosanus [2]; in vivo,higher than 1500 ppm
same,Colonies Alive,"Formosan termites; 250 ppm in bait matrix, 1 Month of feeding",4
same,Colonies Alive,"Formosan termites; 250 ppm in bait matrix, 2 Months of feeding",3
same,Colonies Alive,"Formosan termites; 250 ppm in bait matrix, 2½ Months of feeding",0
same,Colonies Alive,"Formosan termites; 500 ppm in bait matrix, 1 Month of feeding",3
same,Colonies Alive,"Formosan termites; 500 ppm in bait matrix, 2 Months of feeding",1
same,Colonies Alive,"Formosan termites; 500 ppm in bait matrix, 2½ Months of feeding",0
Copper naphthenate,repellence to termites,termites [3],highly repellent
same,toxicity to termites,termites [3],toxic
same,week by which all termites in the treatments were dead,"termites [4]; 50, 100 and 200 ppm",≤ 12 week
same,Percent colonies of 2500 termite workers alive,"termites [4]; 50 ppm, 8 wks after treatment",50%
same,Percent colonies of 2500 termite workers alive,"termites [4]; 50 ppm, 10 wks after treatment",25%
same,Percent colonies of 2500 termite workers alive,"termites [4]; 50 ppm, 12 wks after treatment",0%
same,boxes in which all termites died,"termites [4]; 50 ppm, at about 8 weeks",50%
same,boxes in which all termites died,"termites [4]; 50 ppm, at about 10 weeks",75%
same,time at which all termites died in the boxes,termites [4]; 100 ppm,8 weeks
same,Percent colonies of 2500 termite workers alive,"termites [4]; 100 ppm, 8 wks after treatment",0%
same,Percent colonies of 2500 termite workers alive,"termites [4]; 100 ppm, 10 wks after treatment",0%
same,Percent colonies of 2500 termite workers alive,"termites [4]; 100 ppm, 12 wks after treatment",0%
same,time at which all termites died in all tested boxes,termites [4]; 200 ppm,8 weeks
same,acceptance of the bait and time to kill,termites [4]; 200 ppm dose,great variability
same,Percent colonies of 2500 termite workers alive,"termites [4]; 200 ppm, 8 wks after treatment",0%
same,Percent colonies of 2500 termite workers alive,"termites [4]; 200 ppm, 10 wks after treatment",0%
same,Percent colonies of 2500 termite workers alive,"termites [4]; 200 ppm, 12 wks after treatment",0%
O=C(NC(=O)c1c(F)cccc1F)Nc1ccc(Cl)cc1 [diflubenzuron],suppressing colonies,C. formosanus [1],particularly effective
same,suppressing colonies,Reticulitermes spp.,particularly effective
